Patent US20190105337A1, “METHODS OF TREATING BACTERIAL INFECTIONS” (priority 2015, published 2019)
Values after ≈ are worked out from the molar mass of the structure shown. Where two headings read alike, the source gives them in different places.

Assays:
P. aeruginosa strains = assay: MIC by broth microdilution (CLSI), P. aeruginosa strains; type: cell-based; conditions: Pseudomonas aeruginosa
[1] = Example 2: treatment emergent adverse events, single dose phase; type: in vivo, human; conditions: Pooled Meropenem alone
Procedure: (§1) The combination of both drugs was administered on day 7. All drugs were infused over 3 hours. Plasma and urine samples were obtained and assayed using validated HPLC/MS methods.
No subjects discontinued due to AEs and no SAEs were observed.

clinical [2] = conditions: human, in vivo
[3] = Example 3: adverse events during the multiple dose phase; type: in vivo, human
Procedure: All infusions were administered over 3 hours. Intensive plasma and urine PK sampling was obtained after dosing and assayed using validated HPLC/MS methods.
Table 7 summarizes the number (%) of subjects with at least one treatment emergent AE and number of adverse events during the multiple dose phase. […] All AEs, except 2 were mild or moderate in severity. […] There is no evidence that the addition of Compound I changed the AE profile of meropenem.

clinical [4] = conditions: human, in vivo; remark: listed apart in the source
Procedure: as §1

[5] = cited from earlier work
[6] = Example 6: noncompartmental plasma pharmacokinetics after third dose of the Combination (2 g meropenem/2 g Compound I q8h); conditions: for AUC(0-t) / clearance / Cmax / Tmax / half-life: both, human, plasma, intravenous; for AUC(0-t): AUC0-8, meropenem 2 g q8h; for clearance: CL; for clearance / Cmax / Tmax / Vss: meropenem 2 g q8h; for half-life: t1/2, meropenem 2 g q8h
Procedure: A total of twenty-five (n=25) male and female subjects who met the study entry criteria and completed all phases of the pharmacokinetic study were included in this pharmacokinetic analysis. […] Blood samples were collected to measure drug concentrations in plasma prior to (time 0), and at 1.5, 2.95, 3.083, 3.25, 3.5, 4, 6, and 8 hours after the start of a 3-hour intravenous infusion of the third combination dose.
(Reports MC14B-0013, MC14B-0015, MC14I-011, and MC14I-0012). The urea concentrations in plasma and BAL were performed with a microplate-based method with an 0-phthalaldehyde chromogenic solution at MicroConstants, Inc., San Diego, Calif.
Peak plasma concentration (Cmax) and time to Cmax (Tmax) were read from the observed plasma concentration-time profile after the start of the intravenous infusion of the third Combination dose. Area under the plasma concentration-time curve over 8 hours (AUC0-8) after the third dose was calculated with the linear-log trapezoidal rule (WinNonlin®, version 6.3, Pharsight Corporation, Cary, N.C.). The elimination rate constant (β) was determined by nonlinear least-squares regression. Elimination half-life (t½) was calculated by dividing β into the natural logarithm of two.

C[C@@H](O)[C@H]1C(=O)N2C(C(=O)O)=C(S[C@@H]3CN[C@H](C(=O)N(C)C)C3)[C@H](C)[C@H]12 [meropenem, Meropenem]
MIC (P. aeruginosa strains; P. aeruginosa PAM3210, read-out: MIC): 2 µg/mL (≈ 5.22 µM) | MIC (P. aeruginosa strains; P. aeruginosa PAM3353, read-out: MIC): 8 µg/mL (≈ 20.9 µM) | MIC (P. aeruginosa strains; P. aeruginosa PAM3377, read-out: MIC): 4 to 8 µg/mL (≈ 10.4 to 20.9 µM) | MIC (P. aeruginosa strains; read-out: Meropenem (w/ 8 mg/L Compound I) MIC, P. aeruginosa PAM3210, w/ 8 mg/L Compound I): 2 µg/mL (≈ 5.22 µM) | MIC (P. aeruginosa strains; read-out: Meropenem (w/ 8 mg/L Compound I) MIC, P. aeruginosa PAM3353, w/ 8 mg/L Compound I): 8 µg/mL (≈ 20.9 µM) | MIC (P. aeruginosa strains; read-out: Meropenem (w/ 8 mg/L Compound I) MIC, P. aeruginosa PAM3377, w/ 8 mg/L Compound I): 4 to 8 µg/mL (≈ 10.4 to 20.9 µM) | MIC (P. aeruginosa strains; read-out: Meropenem MIC, P. aeruginosa PAM3210): 2 µg/mL (≈ 5.22 µM) | MIC (P. aeruginosa strains; read-out: Meropenem MIC, P. aeruginosa PAM3353): 8 µg/mL (≈ 20.9 µM) | MIC (P. aeruginosa strains; read-out: Meropenem MIC, P. aeruginosa PAM3377): 4 to 8 µg/mL (≈ 10.4 to 20.9 µM) | Headache, % [1]: 37% | Infusion site pain, % [1]: 10% | PK catheter site hematoma, % [1]: 21% | PK catheter site pain, % [1]: 10% | Subjects with TEAEs, % [1]: 95% | AUC (clinical [2]; Meropenem exposure (AUC)): 211 µg·h/mL | clearance (clinical [2]; weight adjusted clearance (Cl)): 2.33 mL/min/kg | AEs, Number of Events ([3]; Pooled 2 g Meropenem): [24] | Moderate or Severe AEs, N subjects ([3]; Pooled 2 g Meropenem): 0 | Subjects with at least one Treatment Emergent AE, % ([3]; Pooled 2 g Meropenem): 80% | AEs, Number of Events ([3]; Pooled Meropenem (1 and 2 g)): [67] | Moderate or Severe AEs, % subjects ([3]; Pooled Meropenem (1 and 2 g)): 24% | Moderate or Severe AEs, N subjects ([3]; Pooled Meropenem (1 and 2 g)): 5 | Moderate or Severe AEs, Number of Events ([3]; Pooled Meropenem (1 and 2 g)): [5] | Subjects with at least one Treatment Emergent AE, % ([3]; Pooled Meropenem (1 and 2 g)): 95% | Mild nausea ([3]; alone or in combination): observed only in the subjects who received meropenem 2 g | AUC(0-∞) (clinical [4]): 130.34 µg·h/mL | Cmax (clinical [4]): 42.54 µg/mL | half-life (clinical [4]; Half-Life): 0.98 h | clearance (clinical [4]; Plasma Clearance): 334 mL/min | Vd (clinical [4]; Vss): 25.9 L | mean meropenem ELF concentration ([5]; 500 mg dose, 1 hour): 5.3 µg/mL | mean meropenem ELF concentration ([5]; 500 mg dose, 2 hours): 2.7 µg/mL | mean meropenem ELF concentration ([5]; 500 mg dose, 3 hours): 1.9 µg/mL | mean meropenem ELF concentration ([5]; 500 mg dose, 5 hours): 0.7 µg/mL | mean meropenem ELF concentration ([5]; 500 mg dose, 8 hours): 0.2 µg/mL | intrapulmonary penetration based on AUC0-8 of ELF and total plasma ([5]; 500 mg dose): approximately 43% | mean meropenem ELF concentration ([5]; 1 gram dose, 1 hour): 7.7 µg/mL | mean meropenem ELF concentration ([5]; 1 gram dose, 2 hours): 4.0 µg/mL | mean meropenem ELF concentration ([5]; 1 gram dose, 3 hours): 1.7 µg/mL | mean meropenem ELF concentration ([5]; 1 gram dose, 5 hours): 0.8 µg/mL | mean meropenem ELF concentration ([5]; 1 gram dose, 8 hours): 0.03 µg/mL | intrapulmonary penetration based on AUC0-8 of ELF and total plasma ([5]; 1 gram dose): ~28% | mean meropenem ELF concentration ([5]; 2 gram dose, 1-hour sampling time): 2.9 µg/mL | mean meropenem ELF concentration ([5]; 2 gram dose, 3-hour sampling time): 2.8 µg/mL | AUC(0-t) ([6]; 1.5-hour BAL Sampling Group): 168 ± 41.7 µg·h/mL | AUC(0-t) ([6]; 3.25-hour BAL Sampling Group): 184 ± 29.7 µg·h/mL | AUC(0-t) ([6]; 4-hour BAL Sampling Group): 196 ± 33.5 µg·h/mL | AUC(0-t) ([6]; 6-hour BAL Sampling Group): 197 ± 38.7 µg·h/mL | AUC(0-t) ([6]; 8-hour BAL Sampling Group): 182 ± 28.7 µg·h/mL | AUC(0-t) ([6]; All Subjects): 186 ± 33.6 µg·h/mL | clearance ([6]; 1.5-hour BAL Sampling Group): 208 mL/min | clearance ([6]; 3.25-hour BAL Sampling Group): 185 mL/min | clearance ([6]; 4-hour BAL Sampling Group): 175 mL/min | clearance ([6]; 6-hour BAL Sampling Group): 173 mL/min | clearance ([6]; 8-hour BAL Sampling Group): 187 mL/min | clearance ([6]; All Subjects): 185 mL/min | Cmax ([6]; 1.5-hour BAL Sampling Group): 56.9 ± 19.3 µg/mL | Cmax ([6]; 3.25-hour BAL Sampling Group): 57.9 ± 7.5 µg/mL | Cmax ([6]; 4-hour BAL Sampling Group): 59.6 ± 7.4 µg/mL | Cmax ([6]; 6-hour BAL Sampling Group): 59.4 ± 11.5 µg/mL | Cmax ([6]; 8-hour BAL Sampling Group): 57.3 ± 9 µg/mL | Cmax ([6]; All Subjects): 58.2 ± 10.8 µg/mL | Tmax ([6]; 1.5-hour BAL Sampling Group): 2.95 ± 0.01 h | Tmax ([6]; 3.25-hour BAL Sampling Group): 3 ± 0.07 h | Tmax ([6]; 4-hour BAL Sampling Group): 2.98 ± 0.06 h | Tmax ([6]; 6-hour BAL Sampling Group): 2.98 ± 0.06 h | Tmax ([6]; 8-hour BAL Sampling Group): 2.98 ± 0.06 h | Tmax ([6]; All Subjects): 2.98 ± 0.06 h | half-life ([6]; 1.5-hour BAL Sampling Group): 0.98 ± 0.05 h | half-life ([6]; 3.25-hour BAL Sampling Group): 1.04 ± 0.13 h | half-life ([6]; 4-hour BAL Sampling Group): 1.07 ± 0.15 h | half-life ([6]; 6-hour BAL Sampling Group): 1.12 ± 0.24 h | half-life ([6]; 8-hour BAL Sampling Group): 0.96 ± 0.13 h | half-life ([6]; All Subjects): 1.03 ± 0.15 h | Vss ([6]; 1.5-hour BAL Sampling Group): 17.5 ± 2.5 L | Vss ([6]; 3.25-hour BAL Sampling Group): 16.7 ± 2.6 L | Vss ([6]; 4-hour BAL Sampling Group): 15.3 ± 2.1 L | Vss ([6]; 6-hour BAL Sampling Group): 16.1 ± 3.4 L | Vss ([6]; 8-hour BAL Sampling Group): 15.6 ± 2.8 L | Vss ([6]; All Subjects): 16.3 ± 2.6 L
